In patent US9993459B2, “Selective HDAC6 inhibitors and uses thereof” (Universiteit Gent, priority 2015, dated 2018):
Values joined by “and” are separate entries in the source; they are usually repeats but may differ in a detail not shown here. Equal values may be shown once.

Legend:
HDAC9 = HDAC9 (Homo sapiens, UniProt Q9UKV0); assay: In vitro HDAC isozyme selectivity screen: HDAC9; type: biochemical; conditions: for IC50: Table 2
HDAC8 = target: T1, HDAC8 (Homo sapiens, UniProt Q9BY41); assay: In vitro HDAC isozyme selectivity screen: HDAC8; type: biochemical; conditions: for IC50: Table 2
T1 sequence (Q9BY41 1-377): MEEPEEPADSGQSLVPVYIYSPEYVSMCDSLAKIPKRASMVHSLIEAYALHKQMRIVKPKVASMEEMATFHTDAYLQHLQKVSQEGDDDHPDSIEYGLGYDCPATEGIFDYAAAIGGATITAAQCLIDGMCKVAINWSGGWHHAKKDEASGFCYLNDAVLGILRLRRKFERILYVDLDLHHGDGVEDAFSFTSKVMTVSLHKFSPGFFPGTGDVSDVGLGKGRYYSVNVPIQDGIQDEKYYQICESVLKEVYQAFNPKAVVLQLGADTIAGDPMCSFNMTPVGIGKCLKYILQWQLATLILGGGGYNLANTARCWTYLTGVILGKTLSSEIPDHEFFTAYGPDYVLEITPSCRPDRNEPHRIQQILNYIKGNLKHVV

HDAC5 = HDAC5 (Homo sapiens, UniProt Q9UQL6); assay: In vitro HDAC isozyme selectivity screen: HDAC5; type: biochemical; conditions: for IC50: Table 2
Sequence of HDAC5 (Q9UQL6 whole entry, species assumed): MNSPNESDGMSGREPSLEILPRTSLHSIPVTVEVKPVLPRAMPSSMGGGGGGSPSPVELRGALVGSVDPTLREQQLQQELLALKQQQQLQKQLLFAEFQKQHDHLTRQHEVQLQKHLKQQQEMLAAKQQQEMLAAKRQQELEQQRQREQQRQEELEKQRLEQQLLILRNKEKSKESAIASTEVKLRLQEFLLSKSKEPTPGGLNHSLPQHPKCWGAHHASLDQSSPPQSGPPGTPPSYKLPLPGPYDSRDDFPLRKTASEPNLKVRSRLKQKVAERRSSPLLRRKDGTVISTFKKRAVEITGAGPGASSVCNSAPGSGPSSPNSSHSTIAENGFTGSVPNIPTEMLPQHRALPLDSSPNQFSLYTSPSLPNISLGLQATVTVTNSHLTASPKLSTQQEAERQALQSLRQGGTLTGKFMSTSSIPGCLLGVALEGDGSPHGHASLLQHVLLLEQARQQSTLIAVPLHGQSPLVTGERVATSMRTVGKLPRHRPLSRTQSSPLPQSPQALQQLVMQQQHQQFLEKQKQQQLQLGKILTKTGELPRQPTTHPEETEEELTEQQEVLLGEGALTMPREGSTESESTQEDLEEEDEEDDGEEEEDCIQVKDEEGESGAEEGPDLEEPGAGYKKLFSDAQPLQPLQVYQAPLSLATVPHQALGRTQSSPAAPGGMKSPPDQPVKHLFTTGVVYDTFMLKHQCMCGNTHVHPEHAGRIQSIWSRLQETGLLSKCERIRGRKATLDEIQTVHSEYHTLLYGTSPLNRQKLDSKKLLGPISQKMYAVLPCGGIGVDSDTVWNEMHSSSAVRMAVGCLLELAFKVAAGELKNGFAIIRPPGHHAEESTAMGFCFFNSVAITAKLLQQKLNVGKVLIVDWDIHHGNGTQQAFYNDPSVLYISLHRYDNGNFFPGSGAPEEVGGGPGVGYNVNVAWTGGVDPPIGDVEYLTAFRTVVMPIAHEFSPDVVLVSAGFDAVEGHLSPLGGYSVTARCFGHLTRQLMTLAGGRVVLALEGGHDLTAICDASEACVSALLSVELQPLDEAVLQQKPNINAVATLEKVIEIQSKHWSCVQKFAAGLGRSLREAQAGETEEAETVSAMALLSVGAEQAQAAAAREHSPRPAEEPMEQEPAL

[1] = system: acetylation of α-tubulin in Neuro-2a cells; assay: Acetylation level of α-tubulin in Neuro-2a cells (Western blot); type: cell-based, Mouse; conditions: for normalized ratio Acetyl α-Tubulin/α-Tubulin against Tubastatin A, Average: Average of N = 1 to 4; for effect on the acetylation level of α-tubulin compared with Tubastatin A: Neuro-2a cells, in words
Method: FIG. 1: Potency of inhibiting HDAC6 by compounds 7a, 7b and 13a in Neuro-2a cells. A. Cells were treated overnight with different concentrations of the HDAC6 inhibitors and blotted of the acetylation of α-tubulin.
Mouse neuroblastoma (Neuro-2a) cells were grown in a 1:1 mix of D-MEM (Dulbecco's Modified Eagle Medium) and F12 medium supplemented with glutamax (Invitrogen), 100 μg/ml streptomycin, 100 U/ml penicillin (Invitrogen), 10% fetal calf serum (Greiner Bio-one), 1% non-essential amino acids (Invitrogen) and 1.6% NaHCO3 (Invitrogen) at 37° C. and 7.5% CO2. To split the cells, cells were washed with Versene (Invitrogen) and dissociated with 0.05% Trypsine-EDTA (Invitrogen).
For sodium dodecyl sulfate-polyacrylamide gel electrophoresis (SDS-PAGE) analysis, transfected cells were collected using the EpiQuik Total Histone Extraction Kit (EpiGentek) according to manufacturer's instructions. Protein concentrations were determined using microBCA kit (Thermo Fisher Scientific Inc., Pittsburgh, Pa., USA) according to manufacturer's instructions. Before resolving the samples on a 12% SDS-PAGE gel, samples containing equal amounts of protein were supplemented with reducing sample buffer (Thermo Scientific) and boiled at 95° C. for 5 min. After electrophoresis, the proteins were transferred to a polyvinylidene difluoride (PVDF) membrane (Millipore Corp., Bedford, Mass., USA). The non-specific binding was blocked by incubation of the membrane in 5% bovine serum albumin (BSA), diluted in Tris Buffered Saline Tween (TBST, 50 mM TRIS, 150 mM NaCl, 0.1% Tween-20 (Applichem, Darmstadt, Duitsland) for 1 h at room temperature followed by incubation with primary antibodies overnight. The antibodies, diluted in TBS-T, were directed against α-tubulin (1/5000, T6199, Sigma-Aldrich), and acetylated α-tubulin (1/5000, T6793 monoclonal, Sigma-Aldrich). The secondary antibodies, coupled to alkaline phosphatase (anti-mouse or anti-rabbit, 1/5000, Sigma-Aldrich) were used. Blots were visualised by adding the ECF substrate (Enhanced Chemical Fluorescence, GE Healthcare, Uppsala, Sweden) and imaged with the ImageQuant_LAS 4000. A mild reblotting buffer (Millipore) was applied to strip the blots. ImageQuant TL version 7.0-software was used to quantify the blots.
Neuro-2a cells were treated overnight with different concentrations of the HDAC6 inhibitors and the effect on the acetylation level of α-tubulin was determined using Western blots (FIG. 1).

HDAC11 = target: T2, HDAC11 (Homo sapiens, UniProt Q96DB2); assay: In vitro HDAC isozyme selectivity screen: HDAC11; type: biochemical; conditions: Table 2
T2 sequence (Q96DB2 1-347): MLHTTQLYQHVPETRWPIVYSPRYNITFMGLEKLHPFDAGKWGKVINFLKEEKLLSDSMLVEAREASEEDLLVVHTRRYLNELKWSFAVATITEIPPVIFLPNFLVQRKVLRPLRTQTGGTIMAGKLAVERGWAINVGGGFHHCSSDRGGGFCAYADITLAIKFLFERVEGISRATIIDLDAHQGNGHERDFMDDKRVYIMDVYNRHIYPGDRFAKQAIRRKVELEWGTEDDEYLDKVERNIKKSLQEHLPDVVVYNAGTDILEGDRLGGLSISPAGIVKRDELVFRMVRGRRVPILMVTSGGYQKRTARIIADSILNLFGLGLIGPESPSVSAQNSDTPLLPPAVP

HDAC7 = target: T3, HDAC7 (Homo sapiens, UniProt Q8WUI4); assay: In vitro HDAC isozyme selectivity screen: HDAC7; type: biochemical; conditions: for IC50: Table 2
T3 sequence (Q8WUI4 1-952): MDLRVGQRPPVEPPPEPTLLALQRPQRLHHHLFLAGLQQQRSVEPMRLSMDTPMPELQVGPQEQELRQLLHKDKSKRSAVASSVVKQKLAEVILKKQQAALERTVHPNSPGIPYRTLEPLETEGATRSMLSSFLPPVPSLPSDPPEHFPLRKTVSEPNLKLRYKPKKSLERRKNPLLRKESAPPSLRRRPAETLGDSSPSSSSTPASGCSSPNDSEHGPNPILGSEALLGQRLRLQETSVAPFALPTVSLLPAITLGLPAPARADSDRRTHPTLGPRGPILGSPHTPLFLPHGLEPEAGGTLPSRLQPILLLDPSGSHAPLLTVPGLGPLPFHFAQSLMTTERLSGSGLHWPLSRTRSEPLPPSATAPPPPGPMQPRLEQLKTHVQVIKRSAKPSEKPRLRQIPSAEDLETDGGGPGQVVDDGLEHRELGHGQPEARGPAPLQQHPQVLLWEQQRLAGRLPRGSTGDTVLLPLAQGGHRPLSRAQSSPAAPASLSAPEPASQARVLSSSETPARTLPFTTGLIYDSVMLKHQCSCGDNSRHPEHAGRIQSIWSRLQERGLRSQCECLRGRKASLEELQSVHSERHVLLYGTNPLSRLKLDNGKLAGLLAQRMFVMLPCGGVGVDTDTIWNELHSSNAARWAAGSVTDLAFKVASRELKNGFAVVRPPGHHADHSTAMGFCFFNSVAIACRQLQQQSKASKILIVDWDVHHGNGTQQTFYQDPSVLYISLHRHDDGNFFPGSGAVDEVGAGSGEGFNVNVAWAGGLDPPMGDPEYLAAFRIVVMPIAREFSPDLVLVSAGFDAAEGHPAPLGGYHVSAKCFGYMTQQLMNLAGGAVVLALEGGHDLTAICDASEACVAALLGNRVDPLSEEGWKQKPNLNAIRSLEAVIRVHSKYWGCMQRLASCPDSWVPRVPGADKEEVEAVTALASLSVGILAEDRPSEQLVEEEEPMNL

Sequence of HDAC9 (Q9UKV0 whole entry, species assumed): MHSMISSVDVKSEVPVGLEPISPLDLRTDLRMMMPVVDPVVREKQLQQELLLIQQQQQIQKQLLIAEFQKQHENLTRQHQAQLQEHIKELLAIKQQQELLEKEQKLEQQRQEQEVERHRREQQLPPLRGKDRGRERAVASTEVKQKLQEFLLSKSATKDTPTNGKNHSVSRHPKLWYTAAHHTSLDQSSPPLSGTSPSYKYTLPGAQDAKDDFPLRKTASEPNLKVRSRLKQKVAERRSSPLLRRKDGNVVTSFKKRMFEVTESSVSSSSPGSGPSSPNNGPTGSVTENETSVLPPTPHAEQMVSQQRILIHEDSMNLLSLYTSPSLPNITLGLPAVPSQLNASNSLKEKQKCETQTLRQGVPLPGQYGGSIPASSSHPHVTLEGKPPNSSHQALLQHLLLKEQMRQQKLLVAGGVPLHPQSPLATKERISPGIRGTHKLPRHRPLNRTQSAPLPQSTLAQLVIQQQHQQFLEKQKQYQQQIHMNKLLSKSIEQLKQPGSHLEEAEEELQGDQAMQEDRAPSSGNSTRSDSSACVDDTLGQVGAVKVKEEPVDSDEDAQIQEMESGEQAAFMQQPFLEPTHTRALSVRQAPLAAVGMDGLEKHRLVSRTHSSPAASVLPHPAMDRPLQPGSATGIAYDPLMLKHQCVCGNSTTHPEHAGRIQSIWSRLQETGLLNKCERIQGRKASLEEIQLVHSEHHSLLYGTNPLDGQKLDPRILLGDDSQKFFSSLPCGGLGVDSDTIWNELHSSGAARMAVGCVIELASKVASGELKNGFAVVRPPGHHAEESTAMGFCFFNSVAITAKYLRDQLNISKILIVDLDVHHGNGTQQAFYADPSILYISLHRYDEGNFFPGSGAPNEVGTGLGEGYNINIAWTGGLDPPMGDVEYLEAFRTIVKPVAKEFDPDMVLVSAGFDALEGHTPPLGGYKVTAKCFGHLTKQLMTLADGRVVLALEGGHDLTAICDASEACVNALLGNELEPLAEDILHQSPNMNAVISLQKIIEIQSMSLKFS

IC50 (HDAC9) [µM]	IC50 (HDAC8) [µM]	IC50 (HDAC5) [µM]	IC50 (HDAC11) [µM]	effect at 100 μM, HDAC9 (HDAC9; 100 μM)	selectivity for HDAC6 over HDAC8 (HDAC8; HDAC8 vs HDAC6 IC50) [fold]	effect at 100 μM, HDAC5 (HDAC5; 100 μM)	effect at 100 μM, HDAC7 (HDAC7; 100 μM)	Compound	normalized ratio Acetyl α-Tubulin/α-Tubulin against Tubastatin A, Average ([1]; 10 nM, overnight, Neuro-2a)	normalized ratio Acetyl α-Tubulin/α-Tubulin against Tubastatin A, Average ([1]; 50 nM, overnight, Neuro-2a)	normalized ratio Acetyl α-Tubulin/α-Tubulin against Tubastatin A, Average ([1]; 100 nM, overnight, Neuro-2a)	normalized ratio Acetyl α-Tubulin/α-Tubulin against Tubastatin A, Average ([1]; 500 nM, overnight, Neuro-2a)	normalized ratio Acetyl α-Tubulin/α-Tubulin against Tubastatin A, Average ([1]; 1 μM, overnight, Neuro-2a)	effect on the acetylation level of α-tubulin compared with Tubastatin A [1]	IC50 (HDAC7) [µM]	normalized ratio Acetyl α-Tubulin/α-Tubulin against Tubastatin A ([1]; 1 μM, overnight, Neuro-2a, single experiments N = 1 to 4, Tub A 1 μM = 100)
> 100	2.1	> 100	15	less than 50%	57	less than 50%	less than 50%	O=C(NO)c1ccc(NCc2csc3ccc(Br)cc23)cc1 [Compound 7b, 5-bromo-3-[(4-hydroxycarbamoylphenyl)aminomethyl]-benzothiophene]	8.35	15.75	27.24	63.70	83.19	same effect on the acetylation level of α-tubulin as Tubastatin A	–	99.53 and 83.22 and 69.97 and 80.03
25	1.9	45	1.2	–	–	–	–	O=C(NO)c1ccc(NCc2csc3cc(Br)ccc23)cc1 [Compound 13a, 6-bromo-3-[(4-hydroxycarbamoylphenyl)aminomethyl]-benzothiophene]	8.35	13.93	23.21	69.97	80.44	–	12	–

Compound	IC50 (HDAC9) [µM]	IC50 (HDAC8) [µM]	IC50 (HDAC5) [µM]	IC50 (HDAC11) [µM]	effect at 100 μM, HDAC9 (HDAC9; 100 μM)	selectivity for HDAC6 over HDAC8 (HDAC8; HDAC8 vs HDAC6 IC50) [fold]	effect at 100 μM, HDAC5 (HDAC5; 100 μM)	effect at 100 μM, HDAC7 (HDAC7; 100 μM)	normalized ratio Acetyl α-Tubulin/α-Tubulin against Tubastatin A, Average ([1]; 10 nM, overnight, Neuro-2a)	normalized ratio Acetyl α-Tubulin/α-Tubulin against Tubastatin A, Average ([1]; 50 nM, overnight, Neuro-2a)	normalized ratio Acetyl α-Tubulin/α-Tubulin against Tubastatin A, Average ([1]; 100 nM, overnight, Neuro-2a)	normalized ratio Acetyl α-Tubulin/α-Tubulin against Tubastatin A, Average ([1]; 500 nM, overnight, Neuro-2a)	normalized ratio Acetyl α-Tubulin/α-Tubulin against Tubastatin A, Average ([1]; 1 μM, overnight, Neuro-2a)	effect on the acetylation level of α-tubulin compared with Tubastatin A [1]	IC50 (HDAC7) [µM]	normalized ratio Acetyl α-Tubulin/α-Tubulin against Tubastatin A ([1]; 1 μM, overnight, Neuro-2a, single experiments N = 1 to 4, Tub A 1 μM = 100)
O=C(NO)c1ccc(NCc2csc3ccccc23)cc1 [Compound 7a, 3-[(4-hydroxycarbamoylphenyl)aminomethyl]benzothiophene]	7.1	1.4	17	31	–	–	–	–	24.02	46.70	67.40	139.23	90.45	same effect on the acetylation level of α-tubulin as Tubastatin A	5.2	–
